Reference: publication PMC12040169 (PLOS Biology, 2025)

Assay: in vitro
Conditions: human, hela cells, % viability

SMILES	viability at 28.5 h, 10 µM	viability at 28.5 h, 10 µM (bulk resorufin, single well)
CCCNC(=O)Cn1nc(CC)n2c(cc3ccsc32)c1=O [CBK284130]	91.5%	–
CN(C)S(=O)(=O)c1ccc(NC(=O)c2ccc(-c3ccccc3)cc2)cc1 [CBK267322]	104%	–
Cc1cnc2c(N3CCCC3)nc(Cl)cn12 [CBK092250]	104%	–
O=S(=O)(NN1CCOCC1)c1cc(Cl)cc(Cl)c1O [CBK269279]	89.8%	–
CN1CCN(CCCNC(=O)N2CCN(c3cc(C(F)(F)F)ccn3)CC2)CC1 [CBK156431]	93.7%	–
COCC(=O)N1CCCC(c2nc(C)n3c(C)csc23)C1 (stereo not shown) [CBK285214]	98.7%	–
CN(C1=NS(=O)(=O)c2ccccc21)c1ccccc1C(=O)O [CBK287094]	90%	–
COc1ccc(CNc2ccc(C3c4ccsc4CCN3C(C)=O)cc2)cc1 (stereo not shown) [CBK286444]	102%	–
COc1ccnc(N2CCCN(CCCC#N)CC2)n1 [CBK084124]	88.4%	–
CN1C(/C=N/O)=C(O)c2ccccc2S1(=O)=O [CBK010098]	94.1%	–
O=C1NCCN1c1cccc(Cl)c1 [CBK016915]	88.3%	–
O=C(O)COc1ccc(/C=N/n2cnnc2)cc1Cl [CBK263902]	99.3%	–
CCCCN(C)S(=O)(=O)c1ccc(C(C)(C)CC)cc1 [CBK044836]	89.9%	–
O=C(N[C@H]1CCN2C(=O)c3cc(-c4ccccc4)ccc3NC(=O)[C@H]12)c1cccs1 [CBK289350]	85.9%	–
CCC1CCCCN1C(=O)c1ccccc1OC (stereo not shown) [CBK083205]	99.4%	–
CC(=O)Oc1ccc(N2C(=O)CCSC2=S)cc1 [CBK005283]	89.4%	–
CCOC(=O)c1ccc(C2=NCCC2)[nH]1 [CBK011191]	95.1%	–
CCCC/C=C/c1cn2ccnc2c(NCCc2cccnc2)n1 [CBK066235]	105%	–
COc1ccc(C(=O)N2CCN3C(=O)CCC32C)s1 (stereo not shown) [CBK282058]	98.4%	–
OCCNc1nccnc1-c1ccc2c(c1)OCO2 [CBK088984]	95%	–
Cc1cc(CN(C)Cc2c(-c3ccccc3)nn(C)c2C)n[nH]1 [CBK281707]	88.8%	–
CC(C)n1c(=O)n(CCN2CCCC2)c2cccnc21 [CBK283532]	98.6%	–
COc1ccc(OC(=O)c2cc(S(=O)(=O)N3CCOCC3)ccc2Cl)cc1 [CBK261655]	88.9%	–

SMILES	viability at 28.5 h, 10 µM	viability at 28.5 h, 10 µM (bulk resorufin, single well)
O=C(N/N=C1/CN2CCC1CC2)c1cccc(O)c1 [CBK262188C]	–	93.5%
COc1ccc(Oc2cncc(OC3CCN(CCc4ccc(F)cc4)C3)n2)cc1OC (stereo not shown) [CBK084409]	94.1%	–
Cc1ccccc1NC(=O)NCc1ccccc1F [CBK105832]	97.4%	–
Cc1ccc(S(=O)(=O)Nc2ccc3c(ccn3CCC3CCN(C(=O)OC(C)(C)C)CC3)c2)cc1Cl [CBK172990]	94.6%	–
CCOC(=O)c1c(-c2cccs2)csc1NC(=O)CN1CCCCCC1 [CBK265294G]	106%	–
O=C(Nc1cccnc1)N1CCc2ccccc2C1 [CBK155312]	100%	–
COc1ccc(CC(=O)Nc2ccc(-c3nnc(-c4ccccc4)o3)cc2)cc1OC [CBK267414]	94.9%	–
COc1cccc2cc(C(=O)NCCN3CCOCC3)oc12 [CBK149807]	101%	–
COc1ccnc(Cn2ncc(N3CCCC3)cc2=O)c1 [CBK304379]	87.5%	–
CCOC(=O)C1CCCN(Cc2cccc(Cl)c2Cl)C1 (stereo not shown) [CBK307056]	85.2%	–
CC(=O)Nc1ccc(-n2cc(CN3CCC(Sc4ccccn4)CC3)nn2)cc1 [CBK149476]	99.5%	–
O=C(O)c1ccc(Cl)c2c1C1C=CCC1C(c1ccccn1)N2 (stereo not shown) [CBK287087]	86.9%	–
CC(C)(C)c1cc(CCC(=O)NNC(=O)c2ccccc2Cl)cc(C(C)(C)C)c1O [CBK268391]	109%	–
CN(Cc1ccccc1)c1nc2ccccn2c(=O)c1/C=C1/SC(=S)N(CCc2ccccc2)C1=O [CBK263839]	112%	–
Cc1cccn2cc(C(=O)N3CC(C(=O)N4CCN(c5ccccc5)CC4)C3)nc12 [CBK285663]	101%	–
Cc1nnc(CN(C)C2CCN(CC3CCCC3)C2)n1C (stereo not shown) [CBK304851]	106%	–
CN(C)S(=O)(=O)N1CCN(c2ccc([N+](=O)[O-])c(NCCc3ccccc3)c2)CC1 [CBK266498]	102%	–
CCC1(CC)OC(NC(C)c2ccccc2F)=NC1=O (stereo not shown) [CBK132018]	87.1%	–
Oc1cc(C(F)(F)F)nc2[nH]nc(-c3cccs3)c12 [CBK008498]	106%	–
N#Cc1ccc(C(=O)NCc2ccc(OC3CCNCC3)cc2)cc1 [CBK036358T]	89.5%	–
Cn1cc(CC(=O)Nc2ccc(N3CCNCC3)nc2)c2ccccc21 [CBK028275T]	72.1%	–
CCc1ccc(OCc2nnc(SCC(=O)NCCCC(=O)O)n2CC(C)C)cc1 [CBK295321]	101%	–
COc1ccccc1-c1nnc(NC(=O)Cc2cccs2)s1 [CBK287361]	93.5%	–

SMILES	viability at 28.5 h, 10 µM	viability at 28.5 h, 10 µM (bulk resorufin, single well)
CC(=O)c1ccc(-n2ncc(-c3ccc(F)cc3)n2)cc1 [CBK112889]	100%	–
CC(C)(C)OC(=O)N1CCC(CNS(C)(=O)=O)CC1 [CBK003925]	78%	–
Cc1c(C)n(Cc2ccco2)c2ncnc(NCCC(=O)O)c12 [CBK307564]	86.8%	–
COC(=O)Cn1c(C(C)(C)C)cn2c3c(=O)n(C)c(=O)n(C)c3nc12 [CBK307555]	84.3%	–
O=C(Cn1c(-c2ccc(F)cc2)cc2cccnc21)N1CCCC1 [CBK285384]	102%	–
O=C(Oc1ccccc1)N1CCC(n2c(=O)[nH]c3ccccc32)CC1 [CBK149865]	89%	–
O=C(c1ccccc1F)N1C[C@H](c2ccsc2)[C@H]2CN(Cc3ccccc3)CC[C@H]21 [CBK285655]	96.5%	–
c1ccc(Nc2c(-c3ccccc3)nc3[nH]cnn23)cc1 [CBK287284]	89.4%	–
CC1(C(=O)N2CCc3onc(-c4ccccc4F)c3C2)CCCO1 (stereo not shown) [CBK282660]	88.1%	–
COCCN(C(=O)c1cc2cc(C)ccc2s1)C1CCS(=O)(=O)C1 (stereo not shown) [CBK304289]	87.3%	–
COc1cccc2c3c([nH]c12)C1(CCCN(C/C=C\c2ccccc2)C1)NCC3 (stereo not shown) [CBK040138]	98.3%	–
COc1ccc(OCCN2C(=O)CNC2=S)cc1 [CBK007177]	77%	–
O=C(CSc1nc(-c2ccccc2)cc(=O)[nH]1)NCc1ccccc1 [CBK287734]	82.7%	–
c1ccc(OCCNc2nccnc2N2CCNCC2)cc1 [CBK013527]	93.3%	–
COc1ccccc1-c1nn2c(Cn3nnc4ccccc43)nnc2s1 [CBK268373]	82.4%	–
COc1ncc(-c2cnc3[nH]c(=O)n(Cc4ccc(S(C)(=O)=O)cc4)c3n2)cn1 [CBK065053]	103%	–
OCCn1ncc2c(NCc3cccnc3-n3cccn3)ncnc21 [CBK305977]	90.6%	–
CCOc1cccc(OCC(=O)N2CCC(c3cc(C(=O)NC)c4ccccc4n3)C2)c1 (stereo not shown) [CBK285896]	81.5%	–
Cc1cccc(C2(O)CCN(CC(O)c3ccccc3)CC2)c1 (stereo not shown) [CBK286325]	106%	–
O=C1CC2(CCN(C(=O)C3CCCC3)CC2)Oc2ccccc21 [CBK283485]	94.9%	–
CC1Cc2cc(-c3cncn3CC(=O)NC(C)(C)C)ccc2N1C (stereo not shown) [CBK281699]	77.3%	–
O=c1[nH]nc2c3ccc(Cl)cc3ncn12 [CBK283988]	62.3%	–
O=C(O)c1c[nH]c2ccc(S(=O)(=O)N3CCOCC3)cc12 [CBK011237]	97.3%	–

SMILES	viability at 28.5 h, 10 µM	viability at 28.5 h, 10 µM (bulk resorufin, single well)
CCCCOC(=O)CCn1c(=S)oc2ccccc21 [CBK019181]	87.9%	–
CCc1nc2c(OCCOc3ccccc3)cccn2c1N(C)C(=O)COc1ccccc1 [CBK147355]	95.2%	–
Cc1ccc2c(c1)CCN(S(C)(=O)=O)C21CCN(CCCOc2ccccc2)CC1 [CBK081066]	96.8%	–
CCN(CC)CCN1CCN(c2cc(-c3ccc4c(c3)OCO4)ncn2)CC1 [CBK037694]	86%	–
O=C(Cc1ccc(Cl)c(Cl)c1)N1CCC2(CCN(C(=O)Cc3c[nH]c4ccccc34)C2)C1 (stereo not shown) [CBK131426]	106%	–
CCN(C)Cc1cccc(CNc2ncnc3c2cnn3CCC#N)c1 [CBK305959]	92.2%	–
Cc1cc(COc2nccnc2N2CCN(Cc3ccc(C(C)C)cc3)CC2)no1 [CBK084186]	94.9%	–
c1cncc(-c2ncc(-c3ccco3)c(-c3ccco3)n2)c1 [CBK284503]	93.5%	–
O=C(Cn1nnc(-c2ccccc2Cl)n1)N/N=C/c1cn(Cc2ccc(Cl)cc2)c2ccccc12 [CBK262333]	107%	–
COc1cc(Nc2nc(-c3cccc(OC(F)(F)F)c3)cn3ccnc23)cc(OC)c1OC [CBK038036]	101%	–
COc1cnc(-c2ccccc2)c(NC(C)=O)n1 [CBK145410]	93.4%	–
COc1ccc(-c2nc(=S)c3c(n2CCCN(C)C)CC(C)(C)OC3)cc1 [CBK267844]	104%	–
Cc1nn(C)cc1C(C)NC(=O)C1(c2ccccc2F)CCOCC1 (stereo not shown) [CBK281594]	80.8%	–
O=C(c1ccco1)N1CCC(c2nnc3n2CCCCC3)CC1 [CBK284607]	94.3%	–
CCOc1ccc(S(=O)(=O)N2CCCN(Cc3ccc(F)cc3F)CC2)c2cccnc12 [CBK062757]	109%	–
CCc1noc(C)c1C(=O)Nc1ncc(C)s1 [CBK288244]	95.4%	–
COc1ccc([N+](=O)[O-])cc1NC(=O)CSCc1ccc(Br)cc1 [CBK268272]	90.9%	–
O=C(CS(=O)(=O)c1cc2c(N3CCNCC3)nccc2s1)c1ccc(N2CCCC2)cc1 [CBK042232C]	81.2%	–
O=C1NN=C(O)C1Cc1ccccc1 (stereo not shown) [CBK067758]	101%	–
O=C(c1ccc(-c2ccoc2)nc1)N1CCCC1 [CBK156284]	84.6%	–
O=C(O)C1CCCN(C(=O)NCC2COc3ccccc3O2)C1 (stereo not shown) [CBK161342]	121%	–
CC(C)C(=O)NC(c1ccc(C(C)C)cc1)c1cc([N+](=O)[O-])c2cccnc2c1O (stereo not shown) [CBK265303]	103%	–
